Data published in patent US20240197623A1, “SILICA-BASED FORMULATIONS OF THERAPEUTIC OLIOGPEPTIDES AND PEPTIDOMIMETICS” (Stealth Bio Therapeutics Inc., priority 2021, published 2024).
Where a SMILES comes first, the peptide text is derived from it. [ ]: non-standard residue; d: D form. Dmt = Cc1cc(O)cc(C)c1C[C@H](N)C(=O)O

Experiments:
[1] = Release/stability of API in ammonium bifluoride, stability-indicating RP-HPLC; assay type: physicochemical; conditions: for modification of the API by the formulation process: impurities in fresh API vs API released from microparticle formulations
[2] = tested on: age-related visual impairment; conditions: Alam et al., Disease Models & Mechanisms (2021); cited from earlier work
[3] = tested on: patients with intermediate age-related macular degeneration (AMD) and high-risk drusen (HRD); conditions: subcutaneous administration, ReCLAIM, Ophthalmology Science 2022; cited from earlier work

| Structure (SMILES) | Purity ([1]; Control/standard: 16 μg/mL Compound I in H2O) | Purity ([1]; Control/standard: 40 μg/mL Compound I in H2O) | Purity ([1]; Spiked: 16 μg/mL Compound I in 0.1M NH4HF2) | Purity ([1]; Spiked: 40 μg/mL Compound I in 0.1M NH4HF2) | modification of the API by the formulation process [1] | treatment of photopic age-related loss of spatial vision [2] | safety and tolerability [3] |
| --- | --- | --- | --- | --- | --- | --- | --- |
| Cc1cc(O)cc(C)c1C[C@H](NC(=O)[C@H](N)CCCNC(=N)N)C(=O)N[C@@H](CCCCN)c1nc(Cc2ccccc2)no1 [Compound I] | 99.1% | 98.4% | 99.2% | 98.6% | not significantly modified | – | – |
| Cc1cc(O)cc(C)c1C[C@H](NC(=O)[C@H](N)CCCNC(=N)N)C(=O)N[C@@H](CCCCN)C(=O)N[C@@H](Cc1ccccc1)C(N)=O [elamipretide] (H-[dR][Dmt]KF-NH2) | – | – | – | – | not significantly modified | effective | safe and well-tolerated |
